Test results reported in patent US10894792B2, “Pesticidally active heterocyclic derivatives with sulfur containing substituents” (SYNGENTA PARTICIPATIONS AG, priority 2017, dated 2021).

Assays:
Format in all cases: in vivo
Plutella xylostella = assay: Activity against Plutella xylostella (diamond back moth), artificial diet; details: 120 h, application rate of 200 ppm, L2 larvae on artificial diet, 5 days after infestation, read-out: effect in at least one of the two categories (mortality or growth inhibition)
Method: (§1) 24-well microtiter plates with artificial diet were treated with aqueous test solutions prepared from 10′000 ppm DMSO stock solutions by pipetting. After drying, the plates were infested with L2 larvae (10 to 15 per well). The samples were assessed for mortality and growth inhibition in comparison to untreated samples 5 days after infestation.

Bemisia tabaci = assay: Activity against Bemisia tabaci (cotton white fly); details: foliar, 144 h, application rate of 200 ppm, sprayed cotton leaf discs, adult white flies, 6 days after incubation
Method: Cotton leaf discs were placed on agar in 24-well microtiter plates and sprayed with aqueous test solutions prepared from 10′000 ppm DMSO stock solutions. After drying the leaf discs were infested with adult white flies. The samples were checked for mortality 6 days after incubation.

Myzus persicae [1] = assay: Activity against Myzus persicae (green peach aphid), sprayed sunflower leaf discs; details: foliar, 144 h, application rate of 200 ppm, aphid population of mixed ages, 6 days after infestation
Method: (§2) Sunflower leaf discs were placed on agar in a 24-well microtiter plate and sprayed with aqueous test solutions prepared from 10′000 ppm DMSO stock solutions. After drying, the leaf discs were infested with an aphid population of mixed ages. The samples were assessed for mortality 6 days after infestation.

Myzus persicae [2] = assay: Activity against Myzus persicae (green peach aphid), roots of pea seedlings in test solution; details: 144 h, test rate of 24 ppm, roots of infested pea seedlings in test solution, 6 days
Method: Roots of pea seedlings infested with an aphid population of mixed ages were placed directly in the aqueous test solutions prepared from 10′000 DMSO stock solutions. The samples were assessed for mortality 6 days after placing seedlings in test solutions.

Euschistus heros = assay: Activity against Euschistus heros (neotropical brown stink bug); details: 120 h, application rate of 200 ppm, sprayed soybean leaf, N-2 nymphs, 5 days after infestation, read-out: effect in at least one of the two categories (mortality or growth inhibition)
Method: Soybean leaf on agar in 24-well microtiter plates were sprayed with aqueous test solutions prepared from 10′000 ppm DMSO stock solutions. After drying the leaf were infested with N-2 nymphs. The samples were assessed for mortality and growth inhibition in comparison to untreated samples 5 days after infestation.

Diabrotica Balteata = assay: Activity against Diabrotica balteata (corn root worm); details: 96 h, application rate of 200 ppm, sprayed maize sprouts, L2 larvae, 4 days after infestation, read-out: effect in at least one of the two categories (mortality or growth inhibition)
Method: as §1, with “Maize sprouts placed onto an agar layer in 24-well” for “24-well”, “plates” for “plates with artificial diet”, “spraying.” for “pipetting.”, “(6” for “(10”, “10” for “15”, “4” for “5”

Spodoptera littoralis = assay: Activity against Spodoptera littoralis (Egyptian cotton leaf worm); details: foliar, 72 h, application rate of 200 ppm, sprayed cotton leaf discs, L1 larvae, 3 days after infestation, read-out: control (mortality, anti-feeding effect, or growth inhibition)
Method: Cotton leaf discs were placed onto agar in 24-well microtiter plates and sprayed with aqueous test solutions prepared from 10′000 ppm DMSO stock solutions. After drying the leaf discs were infested with five L1 larvae. The samples were assessed for mortality, anti-feeding effect, and growth inhibition in comparison to untreated samples 3 days after infestation. Control of Spodoptera littoralis by a test sample is given when at least one of the categories mortality, anti-feedant effect, and growth inhibition is higher than the untreated sample.

[3] = tested on: Frankliniella occidentalis; assay: Activity against Frankliniella occidentalis (western flower thrips); details: foliar, 168 h, application rate of 200 ppm, sprayed sunflower leaf discs, population of mixed ages, 7 days after infestation
Method: as §2, with “in” for “in a”, “plates” for “plate”, “[…]” for “10′000 ppm”, “drying” for “drying,”, “a Frankliniella” for “an aphid”, “7” for “6”

CCS(=O)(=O)c1cc(C(=O)N=S2(=O)CCC2)cnc1-c1nc2cc(C(F)(F)F)ncc2n1C [Compound P12, 5-ethylsulfonyl-6-[3-methyl-6-(trifluoromethyl)imidazo[4,5-c]pyridin-2-yl]-N-(1-oxothietan-1-ylidene)pyridine-3-carboxamide]
≥ 80%: percent effect (mortality or growth inhibition) at 200 ppm (Plutella xylostella) | mortality at 200 ppm (Bemisia tabaci) | mortality at 200 ppm (Myzus persicae [1]) | mortality at 24 ppm (Myzus persicae [2])

CCS(=O)(=O)c1cc(C(=O)N=S(C)(C)=O)cnc1-c1nc2cc(C(F)(F)F)nnc2n1C [Compound P6, N-[dimethyl(oxo)-λ^6-sulfanylidene]-5-ethylsulfonyl-6-[7-methyl-3-(trifluoromethyl)imidazo[4,5-c]pyridazin-6-yl]pyridine-3-carboxamide]
≥ 80%: percent effect (mortality or growth inhibition) at 200 ppm (Plutella xylostella) | mortality at 200 ppm (Bemisia tabaci) | percent effect (mortality or growth inhibition) at 200 ppm (Euschistus heros) | mortality at 200 ppm (Myzus persicae [1]) | percent effect (mortality or growth inhibition) at 200 ppm (Diabrotica Balteata) | mortality at 24 ppm (Myzus persicae [2])

CCS(=O)(=O)c1cc(C(=O)N=S(=O)(CC)CC)cnc1-c1cn2cnc(C(F)(F)F)cc2n1 [Compound P21, N-[diethyl(oxo)-λ^6-sulfanylidene]-5-ethylsulfonyl-6-[7-(trifluoromethyl)imidazo[1,2-c]pyrimidin-2-yl]pyridine-3-carboxamide]
≥ 80%: percent effect (mortality or growth inhibition) at 200 ppm (Plutella xylostella) | percent effect (mortality or growth inhibition) at 200 ppm (Euschistus heros) | percent control (mortality, anti-feedant effect or growth inhibition) at 200 ppm (Spodoptera littoralis)

CCS(=O)(=O)c1cc(C(=O)N=S(=O)(CC)CC)cnc1-c1nc2cc(C(F)(F)F)nnc2n1C [Compound P18, N-[diethyl(oxo)-λ^6-sulfanylidene]-5-ethylsulfonyl-6-[7-methyl-3-(trifluoromethyl)imidazo[4,5-c]pyridazin-6-yl]pyridine-3-carboxamide]
≥ 80%: percent effect (mortality or growth inhibition) at 200 ppm (Plutella xylostella) | mortality at 200 ppm (Bemisia tabaci) | percent effect (mortality or growth inhibition) at 200 ppm (Euschistus heros) | mortality at 200 ppm (Myzus persicae [1]) | percent effect (mortality or growth inhibition) at 200 ppm (Diabrotica Balteata) | mortality at 24 ppm (Myzus persicae [2])

CCS(=O)(=O)c1cc(C(=O)N=S2(=O)CCOCC2)cnc1-c1nc2cc(C(F)(F)F)ncc2n1C [Compound P2, 5-ethylsulfonyl-6-[3-methyl-6-(trifluoromethyl)imidazo[4,5-c]pyridin-2-yl]-N-(4-oxo-1,4-oxathian-4-ylidene)pyridine-3-carboxamide]
≥ 80%: percent effect (mortality or growth inhibition) at 200 ppm (Euschistus heros) | mortality at 200 ppm (Myzus persicae [1]) | mortality at 24 ppm (Myzus persicae [2])

CCS(=O)(=O)c1cc(C(=O)N=S(=O)(CC)CC)cnc1-c1nc2cc(C(F)(F)F)ncc2n1C [Compound P3]
≥ 80%: percent effect (mortality or growth inhibition) at 200 ppm (Plutella xylostella) | mortality at 200 ppm (Bemisia tabaci) | percent effect (mortality or growth inhibition) at 200 ppm (Euschistus heros) | mortality at 200 ppm (Myzus persicae [1]) | mortality at 24 ppm (Myzus persicae [2])

CCS(CC)=NC(=O)c1cnc(-c2nc3cc(C(F)(F)F)ncc3n2C)c(S(=O)(=O)CC)c1 [Compound P10, N-(diethyl-λ^4-sulfanylidene)-5-ethylsulfonyl-6-[3-methyl-6-(trifluoromethyl)imidazo[4,5-c]pyridin-2-yl]pyridine-3-carboxamide]
≥ 80%: percent effect (mortality or growth inhibition) at 200 ppm (Plutella xylostella) | mortality at 200 ppm (Bemisia tabaci) | percent effect (mortality or growth inhibition) at 200 ppm (Euschistus heros) | mortality at 200 ppm (Myzus persicae [1]) | mortality at 200 ppm [3] | mortality at 24 ppm (Myzus persicae [2])

CCS(=O)(=O)c1cc(C(=O)N=S(C)(C)=O)ccc1-c1cn2cnc(C(F)(F)F)cc2n1 [Compound P7, N-[dimethyl(oxo)-λ^6-sulfanylidene]-3-ethylsulfonyl-4-[7-(trifluoromethyl)imidazo[1,2-c]pyrimidin-2-yl]benzamide]
≥ 80%: percent effect (mortality or growth inhibition) at 200 ppm (Plutella xylostella) | mortality at 200 ppm (Myzus persicae [1]) | percent effect (mortality or growth inhibition) at 200 ppm (Diabrotica Balteata) | mortality at 200 ppm [3] | mortality at 24 ppm (Myzus persicae [2])

CCS(=O)(=O)c1cc(C(=O)N=S(C)(C)=O)ccc1-c1nc2cc(C(F)(F)F)cnc2n1C [Compound P22, N-[dimethyl(oxo)-λ^6-sulfanylidene]-3-ethylsulfonyl-4-[3-methyl-6-(trifluoromethyl)imidazo[4,5-b]pyridin-2-yl]benzamide]
≥ 80%: percent effect (mortality or growth inhibition) at 200 ppm (Plutella xylostella) | mortality at 200 ppm (Bemisia tabaci) | percent effect (mortality or growth inhibition) at 200 ppm (Euschistus heros) | mortality at 200 ppm (Myzus persicae [1]) | percent effect (mortality or growth inhibition) at 200 ppm (Diabrotica Balteata) | mortality at 200 ppm [3] | mortality at 24 ppm (Myzus persicae [2])

CCS(=O)(=O)c1cc(C(=O)N=S(=O)(CC)CC)cnc1-c1nc2cc(C(F)(F)F)cnc2n1C [Compound P19, N-[diethyl(oxo)-λ^6-sulfanylidene]-5-ethylsulfonyl-6-[3-methyl-6-(trifluoromethyl)imidazo[4,5-b]pyridin-2-yl]pyridine-3-carboxamide]
≥ 80%: percent effect (mortality or growth inhibition) at 200 ppm (Plutella xylostella) | mortality at 200 ppm (Bemisia tabaci) | percent effect (mortality or growth inhibition) at 200 ppm (Euschistus heros) | mortality at 200 ppm (Myzus persicae [1]) | mortality at 200 ppm [3] | mortality at 24 ppm (Myzus persicae [2])

CCS(=O)(=O)c1cc(C(=O)N=S(C)(=O)CC)cnc1-c1nc2cc(C(F)(F)F)nnc2n1C (stereo not shown) [Compound P9, N-(ethyl-methyl-oxo-λ^6-sulfanylidene)-5-ethylsulfonyl-6-[7-methyl-3-(trifluoromethyl)imidazo[4,5-c]pyridazin-6-yl]pyridine-3-carboxamide]
≥ 80%: percent effect (mortality or growth inhibition) at 200 ppm (Plutella xylostella) | mortality at 200 ppm (Bemisia tabaci) | percent effect (mortality or growth inhibition) at 200 ppm (Euschistus heros) | mortality at 200 ppm (Myzus persicae [1]) | percent effect (mortality or growth inhibition) at 200 ppm (Diabrotica Balteata) | mortality at 200 ppm [3] | mortality at 24 ppm (Myzus persicae [2])

CCS(=O)(=O)c1cc(C(=O)N=S2(=O)CCOCC2)cnc1-c1nc2cc(C(F)(F)F)cnc2n1C [Compound P17, 5-ethylsulfonyl-6-[3-methyl-6-(trifluoromethyl)imidazo[4,5-b]pyridin-2-yl]-N-(4-oxo-1,4-oxathian-4-ylidene)pyridine-3-carboxamide]
≥ 80%: percent effect (mortality or growth inhibition) at 200 ppm (Plutella xylostella) | percent effect (mortality or growth inhibition) at 200 ppm (Euschistus heros) | mortality at 200 ppm (Myzus persicae [1]) | mortality at 24 ppm (Myzus persicae [2])

CCS(=O)(=O)c1cc(C(=O)N=S(C)(C)=O)cnc1-n1cc2cnc(C(F)(F)F)cc2n1 [Compound P24, N-[dimethyl(oxo)-λ^6-sulfanylidene]-5-ethylsulfonyl-6-[6-(trifluoromethyl)pyrazolo[4,3-c]pyridin-2-yl]pyridine-3-carboxamide]
≥ 80%: percent effect (mortality or growth inhibition) at 200 ppm (Plutella xylostella) | percent control (mortality, anti-feedant effect or growth inhibition) at 200 ppm (Spodoptera littoralis) | percent effect (mortality or growth inhibition) at 200 ppm (Diabrotica Balteata)

CCS(=O)(=O)c1cc(C(=O)N=S(=O)(CC)CC)ccc1-c1nc2cc(C(F)(F)F)cnc2n1C [Compound P23, N-[diethyl(oxo)-λ^6-sulfanylidene]-3-ethylsulfonyl-4-[3-methyl-6-(trifluoromethyl)imidazo[4,5-b]pyridin-2-yl]benzamide]
≥ 80%: percent effect (mortality or growth inhibition) at 200 ppm (Plutella xylostella) | mortality at 200 ppm (Bemisia tabaci) | percent effect (mortality or growth inhibition) at 200 ppm (Euschistus heros) | mortality at 200 ppm (Myzus persicae [1]) | percent effect (mortality or growth inhibition) at 200 ppm (Diabrotica Balteata) | mortality at 24 ppm (Myzus persicae [2])

CCS(=O)(=O)c1cc(C(=O)N=S(C)C)cnc1-c1nc2cc(C(F)(F)F)ncc2n1C [Compound P5, N-(dimethyl-λ^4-sulfanylidene)-5-ethylsulfonyl-6-[3-methyl-6-(trifluoromethyl)imidazo[4,5-c]pyridin-2-yl]pyridine-3-carboxamide]
≥ 80%: mortality at 200 ppm (Bemisia tabaci) | percent effect (mortality or growth inhibition) at 200 ppm (Euschistus heros) | mortality at 200 ppm (Myzus persicae [1]) | percent effect (mortality or growth inhibition) at 200 ppm (Diabrotica Balteata) | mortality at 24 ppm (Myzus persicae [2])
